Experimental data published in patent US6552059B2, “Pharmaceutical composition for and method of treating leukemia” (priority 1995, dated 2003).
Like-named read-outs stand apart in the source and are kept apart here.

Columns and labels:
[1] = system: leukemia (P388SS); type: in vivo, mouse; conditions: for % increase in survival time versus nontreated control: control = 100
Procedure: In an in vivo mouse study for leukemia (P388SS), carbendazim (2-carbonylaminobenzimidazole) was tested in combination with griseofulvin.

[2] = system: leukemia (P338); type: in vivo; conditions: ten mice; for mean number of survival days: dosed 5 days, off 2, dosed 5, off 3
Procedure: Mice were randomly selected and divided into five groups of ten mice each: Group 1—a control group receiving canola oil but no drug treatment; Group 2—a treatment group receiving 125 mg of cytoxan (2-bis(2-chloroethyl)-amino-1-oxo-2-aza-5-oxophosphoridin) per kg of body weight; Group 3—a treatment group receiving 4000 mg of carbendazim per kg of body weight; Group 4—a treatment group receiving 2500 mg of carbendazim per kg of body weight; and Group 5—a treatment group receiving 1000 mg of carbendazim per kg of body weight. The five groups were infected with leukemia (P338). The diseased animals were dosed for five days, off two days, dosed again for another five days and off again for three days.

For `COC1=CC(=O)C[C@@H](C)[C@]12Oc1c(Cl)c(OC)cc(OC)c1C2=O` [Griseofulvin], the “% increase in survival time versus nontreated control” value (“% increase” below) ([1]; griseofulvin 3000 mg/kg, carbendazim 0 mg/kg) was 130%, the “% increase” value ([1]; griseofulvin 4000 mg/kg, carbendazim 0 mg/kg) was 165% and the “% increase” value ([1]; griseofulvin 5000 mg/kg, carbendazim 0 mg/kg) was 213%.

For `COC(=O)Nc1nc2ccccc2[nH]1` [carbendazim, 2-(methoxycarbonylamino)benzimidzole], the “mean number of survival days” value ([2]; Group 3, 4000 mg carbendazim per kg, after infection with leukemia) was 17.3 days, the “mean number of survival days” value ([2]; Group 4, 2500 mg carbendazim per kg) was 16.5 days and the “mean number of survival days” value ([2]; Group 5, 1000 mg carbendazim per kg) was 14.1 days. The “% increase” value ([1]; griseofulvin 0 mg/kg, carbendazim 1000 mg/kg) was 153%, the “% increase” value ([1]; griseofulvin 0 mg/kg, carbendazim 2000 mg/kg) was 190% and the “% increase” value ([1]; griseofulvin 0 mg/kg, carbendazim 3000 mg/kg) was 176%.

For `O=P1(N(CCCl)CCCl)NCCCO1` (centres unmarked) [cytoxan, 2-bis(2-chloroethyl)-amino-1-oxo-2-aza-5-oxophosphoridin, reference compound], the “deaths after infection with leukemia” value ([2]; Group 2, 125 mg cytoxan per kg, up to twenty one days after infection) was “none died” and the “deaths during the test period” value ([1]; positive control, 300 mg/kg (qdx1)) was “no deaths”.
